Source: article PMC5670201 (Scientific Reports, 2017)
Ends that are not written are not given here.

Tests used:
HSA Peptide 40 = target: T1, HSA Peptide 40 (Homo sapiens, UniProt P02768); experiment: biochemical; format: binding; settings: for binding to HSA Peptide 40: Biacore SPR screen, immobilized HSA Peptide 40 and vice versa
T1 construct: HSA 40 (479-496); purchased New England Peptide (Gardner, MA, USA)
Method: All peptides were run in the pM-uM concentration ranges. […] Short gaps in binding curves at transition times are from removal of solvent spikes during analysis. Binding kinetics were determined via Biacore Evaluation Software analysis of SPR sensograms. […] Structure, PDB 1BJ1, was visualized using UCSF Chimera.
The 3D structure of the positive variable region peptides were predicted by PEPFOLD 3.0 to compare to their beta hairpin structure within the full antibody[9]–[11] (Fig. 4d).
Peptides were run in the pM-uM concentration range. […] (b) Multiple sequence alignment of the variable region peptides in question, performed by Clustal Omega. […] (d) 3D structure prediction of peptides in solution performed by PEP-FOLD 3.0, visualized in Chimera. […] Pembrolizumab included as a negative control.
Peptides were re-suspended and stored in HBS running buffer at either 5 or 10 mg/ml, with up to 10% DMSO added as needed. All antibodies, peptides, as well as HSA, were immobilized on Biacore (GE Healthcare, Chicago, IL) CM5 chips via amine coupling according to manufacture protocol. Immobilization scouting was performed with pH 4.0–5.5 acetate at micromolar concentration ranges, to determine ideal immobilization conditions. […] All peptides and proteins were screened at multiple concentrations from pico to millimolarity, with an association time of 120 to 180 seconds and a dissociation time from 180 to 1200 seconds. Binding kinetics were determined using Biacore Evaluation Software and a 1:1 fit model.
The mixture was frozen, evaporated, and re-suspended in HPLC grade water with 0.1% trifluoroacetic acid. The digest was applied to a Waters X-Bridge Protein BEH C4 column (Waters, Milford, MA) and eluted off at a flow rate of 1 ml/min and a gradient of 0–60% Acetonitrile with 0.1% trifluroacetic acid over 60 minutes.

Human Serum Albumin = Human Serum Albumin (Homo sapiens, UniProt P02768); experiment: Biacore SPR, antibody variable domain peptides and antibodies against human serum albumin; format: binding; settings: for binding to human serum albumin: Biacore SPR screen, immobilized HSA and vice versa; for Kd: human, Biacore SPR, CM5 amine coupling, peptide over immobilized HSA and vice versa, pM-uM, 1:1 fit, read-out: Kinetic Binding Parameters Against Human Serum Albumin: KD
Text: The 3D structure of the positive variable region peptides were predicted by PEPFOLD 3.0 to compare to their beta hairpin structure within the full antibody[9]-[11] (Fig. 4d). […] Peptides were run in the pM-uM concentration range. […] (b) Multiple sequence alignment of the variable region peptides in question, performed by Clustal Omega. […] (d) 3D structure prediction of peptides in solution performed by PEP-FOLD 3.0, visualized in Chimera. […] Pembrolizumab included as a negative control.

Compound | binding to HSA Peptide 40 (HSA Peptide 40) | binding to human serum albumin (Human Serum Albumin) | Kd (Human Serum Albumin) [pM] | Kd (HSA Peptide 40) [nM] | kon (HSA Peptide 40; read-out: Kinetic Binding Parameters against HSA Peptide 40: kon) [M⁻¹ s⁻¹]
CC(C)[C@H](NC(=O)[C@H](CC(N)=O)NC(=O)[C@H](Cc1ccccc1)NC(=O)[C@H](Cc1ccc(O)cc1)NC(=O)[C@H](Cc1c[nH]c2ccccc12)NC(=O)[C@H](CC(=O)O)NC(=O)CNC(=O)CNC(=O)[C@H](Cc1ccc(O)cc1)NC(=O)[C@H](Cc1ccc(O)cc1)NC(=O)[C@@H](NC(=O)[C@H](CO)NC(=O)[C@H](CCCNC(=N)N)NC(=O)[C@H](C)NC(=O)[C@H](CS)NC(=O)[C@@H](N)Cc1ccc(O)cc1)[C@@H](C)O)C(=O)N[C@@H](Cc1c[nH]c2ccccc12)C(=O)NCC(=O)N[C@@H](C)C(=O)NCC(=O)O [RVP1] | bound both | bound both | 2.48e+06 |  | 
DTAVYYCAKYPHYYGSSHWYF [BVP1] |  |  | 2.37e+06 |  | 
HYYGSSHWYFDVWGQ [Bevacizumab Heavy Chain 11] |  |  |  | 503 | 357
RVP2: Rituximab Variable Domain Peptide 2 (101-120) | binding neither | binding neither |  |  | 
rituximab: commercial monoclonal antibody, anti-CD20 |  | do not bind HSA |  |  | 
